The target in data set [1] is T1, Xanthine dehydrogenase/oxidase (Bos taurus, UniProt P80457). As to the kind of experiment: Inhibition of bovine milk xanthine oxidase using xanthine as substrate. The note with it: read-out: I50.
Data set [2] has as its target T1, Xanthine dehydrogenase/oxidase. As to the kind of experiment: Activity at bovine milk xanthine oxidase assessed as reduction of 2,6-dichlorophenol-indophenol. The note with it: cattle.
Data set [3] shares this target. Description: Non-competitive inhibition of bovine milk xanthine oxidase using xanthine as substrate by Lineweaver-Burk plot analysis.
Data set [4] shares this target. As to the kind of experiment: Inhibition of bovine milk xanthine oxidase using xanthine as substrate at 10 times I50 preincubated for 1 hr at 4 degC measured after 10 fold dilution relative to control. As to conditions: cattle; call rule not given here.
Data set [5] has the same target. As to the kind of experiment: Activity at bovine milk xanthine oxidase assessed as reduction of cytochrome c and phenazine methosulfate. The note with it: cattle.
Data set [6] shares this target. Description: Non-competitive inhibition of bovine milk xanthine oxidase using hypoxanthine as substrate by Lineweaver-Burk plot analysis.
Data set [7] shares this target. Description: Inhibition of bovine milk xanthine oxidase using xanthine as substrate at 10 times I50 preincubated for 20 mins at 25 degC measured after 10 fold dilution relative to control. As to conditions: cattle.
Data set [8] is described as follows: Dissociation constant, pKa of the compound.
In data set [9] the target is T1, Xanthine dehydrogenase/oxidase. As to the kind of experiment: Inhibition of bovine milk xanthine oxidase using xanthine as substrate assessed as increase of I50 at pH 6.6 to 7.5. As to conditions: cattle.
For data set [10] the target is unchanged. As to the kind of experiment: Mixed-type inhibition of bovine milk xanthine oxidase using hypoxanthine as substrate by Lineweaver-Burk plot analysis.
Data set [11] has the same target. Description: Mixed-type inhibition of bovine milk xanthine oxidase using xanthine as substrate by Lineweaver-Burk plot analysis.
Data set [12] has the same target. Description: Inhibition of bovine milk xanthine oxidase using xanthine as substrate assessed as increase of I50 at pH 7.6 to 7.9. The note with it: cattle.
For data set [13] the target is unchanged. Description: Inhibition of bovine milk xanthine oxidase using xanthine as substrate assessed as increase of I50 at pH 6.6 to 7.6. As to conditions: cattle.
Data set [14] has the same target. As to the kind of experiment: Inhibition of bovine milk xanthine oxidase using xanthine as substrate assessed as increase of I50 at pH 6.6 to 8.2. As to conditions: cattle.
Data set [15] shares this target. Description: Inhibition of bovine milk xanthine oxidase using xanthine as substrate assessed as increase of I50 at pH 8.2 to 8.8. As to conditions: cattle.

This note sets out measurements from ChEMBL document CHEMBL3272185, “Synthesis and enzymic activity of some novel xanthine oxidase inhibitors. 3-Substituted 5,7-dihydroxypyrazolo(1,5-alpha)pyrimidines” (J Med Chem, 1976).

The Ki is a measure of affinity in units of concentration, obtained from inhibition or displacement. The low end stands for tighter binding, the high end for weaker binding. The pKa is the negative logarithm of the acid dissociation constant. A low value points to a group that gives up its proton readily.

T1 sequence (P80457 whole entry): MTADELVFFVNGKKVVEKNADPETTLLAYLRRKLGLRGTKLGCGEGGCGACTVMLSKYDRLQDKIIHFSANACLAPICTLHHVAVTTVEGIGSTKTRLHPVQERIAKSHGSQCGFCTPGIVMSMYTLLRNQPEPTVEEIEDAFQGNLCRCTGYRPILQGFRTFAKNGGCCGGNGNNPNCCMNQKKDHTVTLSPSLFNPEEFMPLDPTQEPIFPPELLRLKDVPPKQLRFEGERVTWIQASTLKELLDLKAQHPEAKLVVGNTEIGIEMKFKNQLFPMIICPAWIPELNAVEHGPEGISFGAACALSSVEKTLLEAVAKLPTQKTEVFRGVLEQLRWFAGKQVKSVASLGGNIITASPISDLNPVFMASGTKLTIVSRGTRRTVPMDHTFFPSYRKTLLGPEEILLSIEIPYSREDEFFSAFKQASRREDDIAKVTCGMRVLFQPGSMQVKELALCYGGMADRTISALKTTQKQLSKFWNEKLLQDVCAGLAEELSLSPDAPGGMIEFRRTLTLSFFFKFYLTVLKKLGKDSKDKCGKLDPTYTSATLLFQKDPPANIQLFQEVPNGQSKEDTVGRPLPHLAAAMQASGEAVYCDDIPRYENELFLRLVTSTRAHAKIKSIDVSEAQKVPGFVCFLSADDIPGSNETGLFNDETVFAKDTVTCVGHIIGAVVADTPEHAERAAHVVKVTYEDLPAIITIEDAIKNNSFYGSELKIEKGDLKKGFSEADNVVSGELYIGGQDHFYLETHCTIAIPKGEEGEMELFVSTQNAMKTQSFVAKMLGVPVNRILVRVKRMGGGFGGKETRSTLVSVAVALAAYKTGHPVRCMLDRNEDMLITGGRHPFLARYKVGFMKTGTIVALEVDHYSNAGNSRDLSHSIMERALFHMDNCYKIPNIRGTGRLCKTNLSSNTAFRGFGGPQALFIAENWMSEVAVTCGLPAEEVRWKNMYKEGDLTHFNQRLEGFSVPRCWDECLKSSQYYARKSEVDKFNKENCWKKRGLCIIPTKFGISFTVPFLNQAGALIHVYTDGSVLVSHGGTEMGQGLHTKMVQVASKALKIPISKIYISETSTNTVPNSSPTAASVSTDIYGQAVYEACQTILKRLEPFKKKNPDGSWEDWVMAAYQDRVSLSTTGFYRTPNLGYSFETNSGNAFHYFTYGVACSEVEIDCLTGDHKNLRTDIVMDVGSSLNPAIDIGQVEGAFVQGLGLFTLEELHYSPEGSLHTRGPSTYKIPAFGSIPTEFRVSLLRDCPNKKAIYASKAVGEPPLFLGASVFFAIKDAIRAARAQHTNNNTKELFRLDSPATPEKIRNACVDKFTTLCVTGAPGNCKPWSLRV

With `Oc1cc(O)n2ncc(Cl)c2n1`, the IC50 in data set [1] worked out at 1400 nM. In addition, the Activity result in data set [2] and in data set [5] was “Not Active” throughout. Further, the inhibition constant (Ki) in [3] stood at 2000 nM; in data set [6] it was 1800 nM. Besides, the entries for the “inhibition (INH)” value in [4] and in data set [7] were 45% and 44%, respectively.

`Oc1ncnc2[nH]ncc12` [ALLOPURINOL]: in [8], the pKa is 9. The “inhibition (INH)” value in data set [9] is reported as “Active”; in [4], 100%; in data set [7], 100%. Also, the result in data set [2] and in [5] was Active.

With `Cc1cccc(-c2cnn3c(O)cc(O)nc23)c1`, in data set [1], the IC50 was determined as 25 nM. Further, the Activity result in data set [2] and in [5] was “Not Active” throughout. For the same molecule, the “inhibition (INH)” value is given as 50% in [4] and 48% in [7]. In addition, the Ki in [10] is 19 nM; in [11] it was 20 nM.

As for `Oc1cc(O)n2ncc(-c3cccnc3)c2n1`, the IC50 in data set [1] turned out to be 43 nM. Also, the Activity entry in data set [2] and in data set [5] was “Not Active” in each case. For the same molecule, the results for the inhibition constant (Ki) in data set [3] and in data set [6] were 26 nM and 31 nM, respectively. Also, the results for the “inhibition (INH)” value in [4] and in data set [7] were 50% and 53%, respectively.

With `Oc1cc(O)n2ncc(-c3cccc4ccccc34)c2n1`, the IC50 in data set [1] came out at 25 nM. Besides, the Activity result in data set [2] and in data set [5] was “Not Active” throughout. Moreover, the Ki in [3] was determined as 13 nM; in [6], 16 nM. Also, the “inhibition (INH)” value in [4] stood at 46%; in data set [7] it was 45%.

As to `Oc1cc(O)n2ncc(-c3ccc4c(c3)OCO4)c2n1`, the IC50 in data set [1] is 29 nM. The Activity entry in data set [2] and in data set [5] was “Not Active” in each case. Moreover, the “inhibition (INH)” value in [4] is reported as 49%; in [7], 46%. Moreover, the values for the Ki in [10] and in data set [11] were 18 nM and 23 nM, respectively.

On to `O=[N+]([O-])c1cnn2c(O)cc(O)nc12`, for which, in [1], the IC50 was found to be 15000 nM. Besides, the Activity result in data set [2] and in data set [5] was “Not Active” each time. For the same molecule, the entries for the “inhibition (INH)” value in data set [4] and in data set [7] were 51% and 53%, respectively. Also, the Ki in data set [10] is 31000 nM; in data set [11], 37000 nM.

Regarding `Oc1cc(O)n2nccc2n1`, the pKa in data set [8] came to 3.7. Besides, the “inhibition (INH)” value in data set [12] was “Active”; in [13], “Active”; in [4] it was 47%; in data set [7], 49%. For the same molecule, the IC50 in [1] stood at 5000 nM. In addition, the Activity entry in data set [2] and in [5] was “Not Active” each time. Moreover, the inhibition constant Ki stood at 5400 nM in [3] and 4200 nM in data set [6].

In data set [8], `O=c1[nH]c(=O)c2[nH]cnc2[nH]1` [XANTHINE] came in with a pKa of 7.6. The result in data set [2] and in [5] was Active.

As for `Cc1ccc(-c2cnn3c(O)cc(O)nc23)cc1`, in data set [1], the IC50 stood at 96 nM. The Activity entry in [2] and in data set [5] was “Not Active” in each case. In addition, the “inhibition (INH)” value came to 55% in data set [4] and 52% in data set [7]. Also, the results for the Ki in [10] and in data set [11] were 24 nM and 17 nM, respectively.

On to `CC(=O)Nc1ccc(-c2cnn3c(O)cc(O)nc23)cc1`, for which the IC50 in data set [1] was determined as 89 nM. The Activity result in [2] and in data set [5] was “Not Active” each time. For the same molecule, the “inhibition (INH)” value is listed as 47% in data set [4] and 48% in data set [7]. Further, the Ki in data set [10] is 77 nM; in [11], 85 nM.

The molecule `Oc1cc(O)n2ncc(-c3ccc(Br)cc3)c2n1` yielded a pKa in data set [8] of 3.8. The IC50 in [1] is 33 nM. The Activity result in [2] and in [5] was “Not Active” in each case. Besides, the “inhibition (INH)” value in data set [14] was “Active”; in data set [4] it was 52%; in [15], “Active”; in data set [7] it was 53%. For the same molecule, the Ki came out at 23 nM in data set [10] and 26 nM in data set [11].

Regarding `Oc1cc(O)n2ncc(-c3ccc(Cl)cc3)c2n1`, the IC50 in data set [1] amounted to 43 nM. Moreover, the Activity result in data set [2] and in [5] was “Not Active” in each case. The “inhibition (INH)” value in [4] is 53%; in [7], 50%. In addition, the Ki in data set [10] is 19 nM; in data set [11], 23 nM.

As to `Oc1cc(O)n2ncc(Br)c2n1`, the IC50 in data set [1] was 1200 nM. Besides, the Activity entry in [2] and in [5] was “Not Active” each time. Further, the Ki stood at 1500 nM in [3] and 1200 nM in data set [6]. Besides, the figures for the “inhibition (INH)” value in data set [4] and in [7] were 50% and 52%, respectively.

Regarding `Oc1cc(O)n2ncc(-c3ccccc3)c2n1`, the pKa in [8] worked out at 3.8. In addition, the IC50 in data set [1] stood at 38 nM. Also, the Activity entry in data set [2] and in data set [5] was “Not Active” in each case. The “inhibition (INH)” value is listed as “Active” in data set [14], 47% in data set [4], “Active” in data set [15] and 49% in [7]. Besides, the values for the Ki in [3] and in data set [6] were 53 nM and 60 nM, respectively.

Molecule `O=c1[nH]cnc2nc[nH]c12` [HYPOXANTHINE] registered a pKa in data set [8] of 8.7.
